Assay results: patent US20230039219A1, “Improved Cell-Permeable Nuclear Import Inhibitor Synthetic Peptide for Inhibition of Cytokine Storm or Inflammatory Disease and Use Thereof” (priority 2020, published 2023)
Bridge positions count the residues as written; N and C are the ends. Ends that are not written are not given here. Peptide text beside a SMILES is read from it.

Assays:
[1] = system: LPS/D-Gal acute liver injury model; test: LPS/D-galactosamine-induced acute liver injury model; conditions: LPS/D-Gal challenge; FIG. 1, 2, 4
[2] = parameters: species or system C57BL/6 mice; conditions: mouse, in vivo, iv
Method: To evaluate the pharmacokinetics of iCP-NI in the lungs, 6-8 weeks old C57BL/6 mice were intravenously administered with 100 mg/kg of FITC-conjugated iCP-NI. Subsequently, mice were sacrificed at various time points and lung tissues were obtained for pharmacokinetic analysis. Also, other tissues (brain, heart, liver, spleen, kidney, small/large intestine and pancreas) were collected for distribution of iCP-NI analysis. Representative lung tissue specimens were perfusion-fixed with 4% paraformaldehyde (PFA; BIOSESANG, Cat No. PC2031-100-00) and incubated in 30% sucrose solution overnight at 4° C. Next, specimens were embedded in optimal cutting temperature (OCT) compound (Leica Biosystems, Cat No. 3801480) and cryo-sectioned to a 10 μm thickness onto microscope glass slide. The cryo-sectioned samples were washed thoroughly with PBS and incubated with ammonium chloride (NH4Cl, Sigma-Aldrich, Cat No. A9434) solution for 20 minutes at room temperature (RT). The samples were mounted with DAPI-containing mounting solution (Invitrogen, Cat No. 00-4959-52) and visualized by fluorescence microscopy using a confocal laser scanning microscope system (Leica SP8) and the images were processed with Leica LAS X software).

| Compound | effect on survival, comparison in words [1] | time high levels remained in lung tissue [2] [h] |
| --- | --- | --- |
| 1NLS: linear nuclear localization sequence from NF-κB1 (p50); Table 1 prints VQRKRQKLMP (SEQ ID NO. 8) (NLS) [Structure 1NLS] | not enhanced |  |
| CC[C@H](C)[C@H](N)C(=O)N[C@@H](C)C(=O)N[C@@H](C)C(=O)N[C@H](C(=O)N[C@@H](CC(C)C)C(=O)N[C@@H](C)C(=O)N[C@@H](C)C(=O)N1CCC[C@H]1C(=O)N[C@@H](C)C(=O)N[C@@H](CC(C)C)C(=O)N[C@H](C(=O)N1CCC[C@H]1C(=O)N[C@H]1CSSC[C@@H](C(=O)O)NC(=O)[C@@H]2CCCN2C(=O)[C@H](CCSC)NC(=O)[C@H](CC(C)C)NC(=O)[C@H](CCCCN)NC(=O)[C@H](CCC(N)=O)NC(=O)[C@H](CCCNC(=N)N)NC(=O)[C@H](CCCCN)NC(=O)[C@H](CCCNC(=N)N)NC(=O)[C@H](CCC(N)=O)NC(=O)[C@H](C(C)C)NC1=O)C(C)C)C(C)C [iCP-NI] (H-IAAVLAAPALVPCVQRKRQKLMPC-OH; disulfide 13-24; N-terminus and C-terminus assumed) |  | ≥ 8 |
| cNLS: circular NLS CVQRKRQKLMPC (SEQ ID NO. 1), no aMTD (also: cyclised, mode not given here) | not enhanced |  |
